In brackets after ≈: the same amount, converted by molar mass.
How the values were obtained:
Staphylococcus aureus [1] = experiment: Antimicrobial activity against community-acquired methicillin-resistant Staphylococcus aureus Panton-Valentine leukocidin negative by time-kill methodology; format: functional
Staphylococcus aureus [2] = experiment: Antimicrobial activity against nosocomially-acquired methicillin-resistant Staphylococcus aureus by time-kill methodology; format: functional
Staphylococcus aureus [3] = experiment: Antimicrobial activity against community-acquired methicillin-resistant Staphylococcus aureus Panton-Valentine leukocidin positive by time-kill methodology; format: functional
Staphylococcus aureus [4] = experiment: Antimicrobial activity against vancomycin-intermediate Staphylococcus aureus by time-kill methodology; format: functional
Staphylococcus aureus [5] = experiment: Antimicrobial activity against vancomycin-resistant Staphylococcus aureus by time-kill methodology; format: functional
Staphylococcus aureus [6] = experiment: Antimicrobial activity against methicillin-susceptible Staphylococcus aureus by time-kill methodology

Row | Molecule | MIC (Staphylococcus aureus [1]) | MIC (Staphylococcus aureus [2]) | MIC (Staphylococcus aureus [3]) | MIC (Staphylococcus aureus [4]) | MIC (Staphylococcus aureus [5]) | MIC (Staphylococcus aureus [6])
1 | CO[C@H]1/C=C/O[C@@]2(C)Oc3c(C)c(O)c4c(O)c(c(/C=N/N5CCN(C)CC5)c(O)c4c3C2=O)NC(=O)/C(C)=C\C=C\[C@H](C)[C@H](O)[C@@H](C)[C@@H](O)[C@@H](C)[C@H](OC(C)=O)[C@@H]1C [RIFAMPIN] | 0.016 µg/mL (≈ 0.0194 µM) | 0.004 µg/mL (≈ 0.00486 µM) | 0.004 µg/mL (≈ 0.00486 µM) | 0.016 µg/mL (≈ 0.0194 µM) | 0.008 µg/mL (≈ 0.00972 µM) | 0.008 µg/mL (≈ 0.00972 µM)
2 | CCCCCCCCCC(=O)N[C@@H](Cc1c[nH]c2ccccc12)C(=O)N[C@H](CC(N)=O)C(=O)N[C@@H](CC(=O)O)C(=O)N[C@@H]1C(=O)NCC(=O)N[C@@H](CCCN)C(=O)N[C@@H](CC(=O)O)C(=O)N[C@H](C)C(=O)N[C@@H](CC(=O)O)C(=O)NCC(=O)N[C@H](CO)C(=O)N[C@@H]([C@H](C)CC(=O)O)C(=O)N[C@@H](CC(=O)c2ccccc2N)C(=O)O[C@@H]1C | 0.5 µg/mL (≈ 0.309 µM) | 0.25 µg/mL (≈ 0.154 µM) | 0.5 µg/mL (≈ 0.309 µM) | 2 µg/mL (≈ 1.23 µM) | 0.25 µg/mL (≈ 0.154 µM) | 0.25 µg/mL (≈ 0.154 µM)
3 | GENTAMICIN | 1 µg/mL | 1 µg/mL | 1 µg/mL | 1 µg/mL | 64 µg/mL | –

From ChEMBL document CHEMBL1145539 (2007)
